Experimental findings from ChEMBL document CHEMBL1157879 are described below.

Experiment [1] concerns the target Lysosomal alpha-glucosidase (Homo sapiens) (UniProt P10253). Briefly: Activation of purified human recombinant acid alpha-glucosidase using 4-methylumbelliferyl-alpha-D-glucopyranoside as substrate after 45 mins relative to basal.
Experiment [2] concerns the target T1, Alpha-galactosidase A (Homo sapiens) (UniProt P06280).
T1 sequence (whole entry): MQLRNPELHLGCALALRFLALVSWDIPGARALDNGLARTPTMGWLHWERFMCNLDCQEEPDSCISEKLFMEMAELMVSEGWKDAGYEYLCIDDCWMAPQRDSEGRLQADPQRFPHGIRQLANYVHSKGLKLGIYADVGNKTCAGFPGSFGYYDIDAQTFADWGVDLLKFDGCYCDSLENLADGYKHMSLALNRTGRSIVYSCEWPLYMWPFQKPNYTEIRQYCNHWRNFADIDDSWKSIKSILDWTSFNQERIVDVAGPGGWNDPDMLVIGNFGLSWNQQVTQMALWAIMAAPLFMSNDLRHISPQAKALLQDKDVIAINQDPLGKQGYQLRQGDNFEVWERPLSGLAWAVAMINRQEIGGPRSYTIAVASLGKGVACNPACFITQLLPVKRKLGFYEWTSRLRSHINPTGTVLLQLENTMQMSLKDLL
Briefly: Activation of purified alpha-galactosidase A using 4-methylumbelliferyl-alpha-D-galactoside as substrate after 45 mins relative to basal.

In experiment [3] the target is Lysosomal alpha-glucosidase (Homo sapiens) (UniProt P10253). In words: Activation of purified human recombinant acid alpha-glucosidase using resorufin alpha-D-glucopyranoside as substrate at 100 uM after 45 mins relative to basal.
For experiment [4] the target is unchanged. In words: Activation of purified human recombinant acid alpha-glucosidase using glycogen as substrate up to 100 uM after 45 mins.
Experiment [5] has the same target. In words: Activation of purified acid alpha-glucosidase in human spleen homogenates using resorufin alpha-D-glucopyranoside as substrate at 10 uM after 45 mins relative to basal.
The target is the same in experiment [6]. Briefly: Activation of purified acid alpha-glucosidase in human spleen homogenates using resorufin alpha-D-glucopyranoside as substrate after 45 mins relative to basal.
Experiment [7] has the same target. Briefly: Activation of purified acid alpha-glucosidase in human spleen homogenates using 4-methylumbelliferyl-alpha-D-glucopyranoside as substrate after 45 mins relative to basal.
For experiment [8] the target is unchanged. Briefly: Activation of purified human recombinant acid alpha-glucosidase using resorufin alpha-D-glucopyranoside as substrate after 45 mins relative to basal.

Each structure is given as a SMILES string. Active and inactive are the calls of the source. The calls are words filed in the database; no cut-off is given here.

As to `CCCN1CNc2c(c(=O)[nH]c(=S)n2CCc2c(Cl)cccc2Cl)C1`, the figures for the Activity entry in experiment [1] and in experiment [3] were “Dose-dependent effect” and 332%, respectively. In addition, the result in experiment [2] and in experiment [4] was inactive. `COc1ccc(C#Cc2cnc(Cl)c3cncnc23)cc1OC`: in experiment [3], the result was inactive. For the compound `CCCN1CNc2c(c(=O)[nH]c(=S)n2CCc2cc(C)ccc2C)C1`, the Activity in experiment [3] was 245%.

With `CCCN1CNc2c(c(=O)[nH]c(=S)n2CCc2ccc(Cl)cc2)C1`, the Activity in experiment [3] stood at 120%.

Turning to `COc1ccc(CCc2c[nH]c(=O)c3cncnc23)cc1OC`, the outcome in experiment [3] was inactive. `COc1ccc(CCn2c(=S)[nH]c(=O)c3nc[nH]c32)cc1OC`: the result in experiment [3] was inactive. Same read-out and setting: the value for `CCCN1CNc2c(c(=O)[nH]c(=S)n2CCc2cc(C)cc(C)c2)C1` was 218%; that for `CCCN1CNc2c(c(=O)[nH]c(=S)n2CCc2cccs2)C1` was 221%. Consider `CCCN1CNc2c(c(=O)[nH]c(=S)n2Cc2ccc(OCC)c(OCC)c2)C1`, for which the figures for the Activity result in experiment [1] and in experiment [3] were “Dose-dependent effect” and 365%, respectively. Further, the outcome in experiment [2] and in experiment [4] was inactive. Turning to `CCCN1CNc2c(c(=O)[nH]c(=S)n2CCc2cccc(Cl)c2)C1`, the Activity in experiment [3] came out at 197%. Same read-out and setting: the value for `CCCN1CNc2c(c(=O)[nH]c(=S)n2CCc2ccc(C)cc2)C1` was 300%.

With `CCCN1CNc2c(c(=O)[nH]c(=S)n2CCc2c(C)cccc2C)C1`, in experiment [3], the Activity was found to be 112%.

For the compound `CCCN1CNc2c(c(=O)[nH]c(=S)n2CCc2ccc(OC)cc2OC)C1`, in experiment [3], the Activity was determined as 308%. For the compound `CCCN1CNc2c(c(=O)[nH]c(=S)n2CCc2ccc(C)cc2C)C1`, in experiment [3], the Activity was determined as 323%. The same measure, in the same setting: in the case of `O=c1[nH]cc(CCc2ccccc2)c2ncncc12` it was “inactive”. Same read-out and setting: the value for `CCCN1CNc2c(c(=O)[nH]c(=O)n2CCc2ccc(OC)c(OC)c2)C1` was 297%; that for `CCCN1CNc2c(c(=O)[nH]c(=S)n2CCc2ccccc2Cl)C1` was 311%; that for `CCCN1CNc2c(c(=O)[nH]c(=S)n2CCc2cc(OC)cc(OC)c2)C1` was 332%. Still for that read-out and setting: the value for `CCCN1CNc2c(c(=O)[nH]c(=S)n2CCc2ccccc2C)C1` was 136%. Regarding `CCCN1CNc2c(c(=O)[nH]c(=S)n2CCc2ccc(C)c(C)c2)C1`, the Activity in experiment [3] worked out at 338%.

With `CCCN1CNc2c(c(=O)[nH]c(=S)n2CCc2ccc(OCC)c(OCC)c2)C1`, the Activity in experiment [3] was determined as 306%. Same read-out and setting: the value for `CCCN1CNc2c(c(=O)[nH]c(=S)n2CCc2ccccc2)C1` was 142%; that for `Clc1ncc(C#Cc2ccccc2)c2ncncc12` was “inactive”; that for `CCCN1CNc2c(c(=O)[nH]c(=S)n2CCc2ccsc2)C1` was 192%. Same read-out and setting: the value for `CCCN1CNc2c(c(=O)[nH]c(=S)n2CCc2ccc(OC)cc2)C1` was 309%; that for `CCCN1CNc2c(c(=O)[nH]c(=S)n2CCC)C1` was “inactive”; that for `CCCN1CNc2c(c(=O)[nH]c(=S)n2CCc2cc(OC)ccc2OC)C1` was 327%. On to `COc1ccc(CCn2c3c(c(=O)[nH]c2=S)CN(Cc2ccccc2)CN3)cc1OC`, for which, in experiment [3], the Activity worked out at 335%. For `COc1ccc(CCn2c3c(c(=O)[nH]c2=S)CN(C(C)C)CN3)cc1OC`, the results for the Activity result in experiment [1] and in experiment [3] were “Dose-dependent effect” and 234%, respectively. For the same compound, the result in experiment [2] was inactive.

In the case of `CCCN1CNc2c(c(=O)[nH]c(=S)n2CCc2cccc(OC)c2OC)C1`, the Activity in experiment [3] is 262%. Regarding `CCCN1CNc2c(c(=O)[nH]c(=S)n2CCc2cccc(C)c2)C1`, the Activity in experiment [3] stood at 295%. Same read-out and setting: the value for `CCCN1CNc2c(c(=O)[nH]c(=S)n2CCc2ccc3c(c2)OCCO3)C1` was 328%; that for `CCCN1CNc2c(c(=O)[nH]c(=S)n2CC(C)(C)C)C1` was “inactive”; that for `CCCN1CNc2c(c(=O)[nH]c(=S)n2CCc2ccccc2OC)C1` was 243%.

With `CCCN1CNc2c(c(=O)[nH]c(=S)n2CCc2ccc(Cl)cc2Cl)C1`, in experiment [3], the Activity was 321%. On the same count and under the same terms, in the case of `COc1ccc(CCn2c(N)cc(=O)[nH]c2=S)cc1OC` it was 32.1%; in that of `COc1ccc(CCn2c3c(c(=O)[nH]c2=S)CN(C)CN3)cc1OC`, 282%. On the same count and under the same terms, the value for `COc1ccc(CCn2c3c(c(=O)[nH]c2=S)CN(c2ccccc2)CN3)cc1OC` was 275%; that for `COc1ccc(CCn2c(=S)[nH]c(=O)c3nccnc32)cc1OC` was “inactive”. The same measure, in the same setting: the value for `CCCCn1c(N)c(NCC)c(=O)[nH]c1=O` was “inactive”.

As for `CCCN1CNc2c(c(=O)[nH]c(=S)n2CCc2cccc(OC)c2)C1`, the Activity in experiment [3] was determined as 302%. Turning to `CCCN1CNc2c(c(=O)[nH]c(=S)n2CC(C)C)C1`, in experiment [3], the outcome was inactive. The same measure, in the same setting: in the case of `COc1ccc(CCn2c(=S)[nH]c(=O)c3c(C)cc(C)nc32)cc1OC` it was “inactive”; in that of `CCCN1CNc2c(c(=O)[nH]c(=S)n2CCc2c(OC)cccc2OC)C1`, 227%; in that of `CCCN1CNc2c(c(=O)[nH]c(=S)n2CCc2ccc(Cl)c(Cl)c2)C1`, 88.8%. In the case of `CCCN1CNc2c(c(=O)[nH]c(=S)n2CCc2cc(Cl)cc(Cl)c2)C1`, the Activity in experiment [3] is 316%. The same measure, in the same setting: the value for `COc1ccc(C(=O)NC2(C(F)(F)F)C(=O)Nc3c2c(=O)[nH]c(=O)n3CCc2ccc(OC)c(OC)c2)cc1` (stereo unspecified) was 121%. Still for that read-out and setting: in the case of `COc1ccc(CCn2c3c(c(=O)[nH]c2=O)C(NC(=O)c2cccs2)(C(F)(F)F)C(=O)N3)cc1OC` (stereo unspecified) it was 64.2%. Turning to `CCCN1CNc2c(c(=O)[nH]c(=S)n2CCc2ccc(OC)c(OC)c2)C1`, the fold change (FC) in experiment [5] came out at 1.5. Besides, the Activity result is “Dose-dependent effect” in experiment [1]; “Dose-dependent effect” in experiment [6]; “Dose-dependent effect” in experiment [7]; “Dose-dependent effect” in experiment [8]; 356% in experiment [3]. Moreover, the result in experiment [2] and in experiment [4] was inactive.

With `CCCN1CNc2c(c(=O)[nH]c(=S)n2CCCc2ccccc2)C1`, the Activity in experiment [3] was determined as 166%.

As to `CCCN1CNc2c(c(=O)[nH]c(=S)n2CCc2cccc(Cl)c2Cl)C1`, the Activity entry in experiment [1] is “Dose-dependent effect”; in experiment [3], 346%. The outcome in experiment [2] and in experiment [4] was inactive.

In the case of `CCCN1CNc2c(c(=O)[nH]c(=S)n2CCc2cc(Cl)ccc2Cl)C1`, the Activity in experiment [3] worked out at 325%.

Turning to `COc1ccc(C#Cc2c[nH]c(=O)c3cncnc23)cc1OC`, the outcome in experiment [3] was inactive. With `COc1ccc(CCn2c3c(c(=O)[nH]c2=S)CN(CC(C)C)CN3)cc1OC`, the Activity in experiment [3] is 338%. The outcome in experiment [4] was inactive. `O=c1[nH]cc(C#Cc2ccccc2)c2ncncc12`: the outcome in experiment [3] was inactive. On to `CCCN1CNc2c(c(=O)[nH]c(=S)n2CCc2cccc(C)c2C)C1`, for which the Activity in experiment [3] came to 300%. Regarding `CCCN1CNc2c(c(=O)[nH]c(=S)n2CCc2ccccn2)C1`, the Activity in experiment [3] came out at 30.6%.
